Experimental data reported in patent publication US20250352675A1, “CA-IX TARGETING FLUORESCENT PROBES” (BRACCO IMAGING S.P.A., priority 2022, published 2025).

What was measured:
[1] = test system: HT-29 cells; experiment: Receptor-mediated uptake: competition with 100x excess of acetazolamide in HT-29 cells; type: cell-based, human; details: 1 μM, 2 hours at 37° C., relative to uptake without acetazolamide
Description: The HT-29 cells were used as in vitro model to assess the cell uptake of the CA-IX targeting compounds of the invention, more specifically whether cellular internalization of compounds occurred after targeting to cell-surface-expressed CA-IX. Cellular uptake was evaluated by flow cytometry. […] Treatment with unconjugated dyes were used to estimate non-specific CA-IX-independent cellular uptake. Cell incubation on ice was used to discriminate the cell-associated fluorescence deriving from internalized and cell-surface associated compounds (37° C.), from the one deriving from solely cell surface-bound compounds (on ice). Treatment of HT-29 cells, grown in 24-well plates, was performed by rinsing cells in DPBS and then by incubation with treatment solutions, for the indicated times and temperatures, in the dark. At the end of treatment, cells were rinsed 3 times with cold DPBS, and detached from the plate with StemPro® Accutase® Cell Dissociation Reagent, collected in 1.5 mL tubes after dilution in DPBS and centrifuged (5 minutes, 350 RCF, 4° C.). The supernatant was then discarded, and the cell pellet was resuspended in 300 μL of cold FACS buffer, or in a suitable volume in order to obtain no more than 1,000 recorded events per μL during FACS analysis. Samples were analyzed with the flow cytometer Accuri™ C6 (BD Biosciences) using the 640 nm excitation laser and the emission 780/60 nm filter. At least 15000 valid events were collected for each sample. At the end of analysis, each sample was plotted in histograms, being X the fluorescence intensity (FL4-A) in log scale and Y the counts. Usually, a gaussian distribution of the cell population was observed. The data retrieved were the mean fluorescence of each population, considered the fluorescence intensity value of the corresponding sample. Independent replicates were performed for each experimental condition. Normalized cell-associated fluorescence was calculated with the following formula: […]

[2] = Optical characterization (excitation/emission maxima, molar extinction coefficient); type: physicochemical; details: in water

CC1(C)C(/C=C/C=C/C=C/C=C2/N(CCCCS(=O)(=O)O)c3ccc(S(=O)(=O)O)cc3C2(C)C)=[N+](CCCCS(=O)(=O)[O-])c2ccc(C(=O)NCCCCCCCC(=O)Nc3nnc(S(N)(=O)=O)s3)cc21 [Compound 2]
% uptake in presence of 100x excess of acetazolamide [1]: 28.4 ± 2.2% | molar extinction coefficient (ε) [2]: 260000 M⁻¹ cm⁻¹

CC1(C)C(/C=C/C=C/C=C/C=C2/N(CCCCS(=O)(=O)O)c3ccc(C(=O)NC[C@H](O)[C@@H](O)[C@H](O)[C@H](O)CO)cc3C2(C)C)=[N+](CCCCS(=O)(=O)[O-])c2ccc(C(=O)NCCCCCCCC(=O)Nc3nnc(S(N)(=O)=O)s3)cc21 [Compound 1]
% uptake in presence of 100x excess of acetazolamide [1]: 16.4 ± 1.9% | molar extinction coefficient (ε) [2]: 240000 M⁻¹ cm⁻¹

CC1(C)C(/C=C/C2=C(Oc3ccc(S(=O)(=O)O)cc3)C(=C/C=C3/N(CCCCS(=O)(=O)O)c4ccc(S(=O)(=O)O)cc4C3(C)C)/CCC2)=[N+](CCCCS(=O)(=O)[O-])c2ccc(C(=O)NCCCCCCCC(=O)Nc3nnc(S(N)(=O)=O)s3)cc21 [Compound 3]
% uptake in presence of 100x excess of acetazolamide [1]: 18.1 ± 11.5% | molar extinction coefficient (ε) [2]: 240000 M⁻¹ cm⁻¹
